Assay [1] deals with Escherichia coli. The experiment in a line: Inhibition of MATE-type HmrM in norfloxacin-resistant Escherichia coli KAM32 assessed as norfloxacin antibacterial activity by measuring norfloxacin MIC measured for 18 hrs incubation by CLSI based microplate reader analysis.
Assay [2] deals with Escherichia coli. Description: Inhibition of MATE-type HmrM in norfloxacin-resistant Escherichia coli KAM32 assessed as norfloxacin antibacterial activity efficacy at 30 uM measured for 18 hrs incubation by CLSI based microplate reader analysis relative to norfloxacin alone.
A short description of assay [3]: Inhibition of MATE-type HmrM (unknown origin). The arrangement: species or system Bacteria.
The test system of assay [4] is Escherichia coli. Description: Antibacterial activity against Escherichia coli KAM32 harboring PBR322 hmrM assessed as effect on bacterial growth at 10 uM measured for 30 hrs by microplate reader analysis. Format: functional, organism-based.
Assay [5] has as its system Bacteria. The experiment in a line: Inhibition of MATE-type HmrM (unknown origin) at 100 uM relative to control.
For assay [6], the system named is Escherichia coli. The experiment in a line: Antibacterial activity against Norfloxacin resistant Escherichia coli KAM32 harboring PBR322 assessed as inhibition of bacterial growth by measuring efficacy at 30 uM measured for 18 hrs by CLSI based analysis relative to control. Format: functional.
In assay [7] the test system is Escherichia coli. The experiment in a line: Antibacterial activity against Norfloxacin sensitive Escherichia coli KAM32 harboring PBR322 assessed as inhibition of bacterial growth by measuring efficacy at 30 uM measured for 18 hrs by CLSI based analysis relative to control. In kind it is functional.
Assay [8] concerns Escherichia coli. Description: Antibacterial activity against Norfloxacin resistant Escherichia coli KAM32 harboring PBR322 hmrM assessed as reduction in bacterial growth measured for 18 hrs by CLSI based analysis. Format: functional.
The subject of assay [9] is Escherichia coli. Description: Antibacterial activity against Norfloxacin sensitive Escherichia coli KAM32 harboring PBR322 assessed as reduction in bacterial growth measured for 18 hrs by CLSI based analysis. Format: functional.

Values after ≈ are worked out from the molar mass of the structure shown. Active and inactive are the calls of the source. The rule behind the calls is not given here.

Turning to `CN/C(=N\C#N)NCCCCCc1cccc(Br)c1`, in assay [1], the MIC amounted to 0.048 µg/mL (≈ 0.148 µM). In [2], the Efficacy came to 19%.

With `CN/C(=N\C#N)NCCC[C@H]1C[C@@H]1c1cccc(Cl)c1`, the MIC in assay [1] came out at 0.032 µg/mL (≈ 0.11 µM). Moreover, in assay [2], the Efficacy stood at 57%.

In the case of `CN/C(=N\C#N)NCCCNC(=O)c1cccc(Cl)c1`, the MIC in assay [1] turned out to be 0.056 µg/mL (≈ 0.191 µM). The Efficacy in assay [2] turned out to be 0%.

For the compound `CN(C)/C(=N\C#N)N(C)CCCC#Cc1cccc(Cl)c1`, in assay [1], the MIC amounted to 0.014 µg/mL (≈ 0.0462 µM). In assay [3], this compound returned an EC50 of 6.8 µM. Also, in assay [2], the Efficacy came to 100%.

In the case of `CN/C(=N\C#N)NCCC/C=C/c1cccc(Cl)c1`, the MIC in [1] amounted to 0.026 µg/mL (≈ 0.0939 µM). Also, the Efficacy in assay [2] is 71%.

Consider `Clc1cccc(CCCCCN2CCOCC2)c1`, for which the MIC in assay [1] was found to be 0.056 µg/mL (≈ 0.209 µM). Moreover, the Efficacy in assay [2] stood at 0%.

As for `Clc1cccc(CCCCCn2ccnc2)c1`, in assay [1], the MIC stood at 0.04 µg/mL (≈ 0.161 µM). Moreover, the Efficacy in assay [2] stood at 38%.

Turning to `OCCCCCc1cccc(Cl)c1`, in [1], the MIC stood at 0.056 µg/mL (≈ 0.282 µM). In addition, the Efficacy in assay [2] was found to be 0%.

On to `CN/C(=N\C#N)NCCC/C=C\c1cccc(Cl)c1`, for which the MIC in assay [1] worked out at 0.026 µg/mL (≈ 0.0939 µM). The Efficacy in assay [2] came out at 71%.

`CN/C(=N\C#N)NCCCCCc1cccc(I)c1`: the MIC in [1] stood at 0.056 µg/mL (≈ 0.151 µM). Further, the Efficacy in assay [2] amounted to 0%.

In the case of `CN/C(=N\C#N)NCCCCCc1cccc(S(C)(=O)=O)c1`, the MIC in assay [1] was 0.04 µg/mL (≈ 0.124 µM). For the same compound, the Efficacy in [2] worked out at 38%.

Turning to `CN/C(=N\C#N)NCCCC#Cc1cccc(Cl)c1`, the MIC in assay [1] amounted to 0.026 µg/mL (≈ 0.0946 µM). For the same compound, the Efficacy in [2] was determined as 71%.

For the compound `CN/C(=N/C#N)NCC#CC#Cc1cccc(Cl)c1`, the MIC in assay [1] was found to be 0.056 µg/mL (≈ 0.207 µM). Moreover, the Efficacy in [2] was 0%.

For the compound `CN/C(=N\C#N)NCCCCCc1cccc(S(F)(F)(F)(F)F)c1`, in assay [1], the MIC worked out at 0.026 µg/mL (≈ 0.0702 µM). In assay [2], the Efficacy was 71%.

As to `CN/C(=N\C#N)NCCCCCc1cccc(Cl)c1`, the MIC in [1] stood at 0.032 µg/mL (≈ 0.115 µM). Further, the Efficacy in [2] amounted to 57%.

For `CN(C)/C(=N\C#N)N(C)Cc1ccc(-c2cccc(S(F)(F)(F)(F)F)c2)cc1`, the MIC in [1] stood at 0.014 µg/mL (≈ 0.0335 µM). For the same compound, the EC50 in assay [3] is 1.8 µM. Further, in assay [2], the Efficacy was found to be 100%. For the same compound, the result in [4] was inactive.

For `CN/C(=N\C#N)NCc1cccc(-c2cccc(Cl)c2)c1`, the MIC in assay [1] was found to be 0.04 µg/mL (≈ 0.134 µM). In [2], the Efficacy was found to be 38%.

In the case of `CN/C(=N\C#N)NCCCCCc1cccc(F)c1`, the MIC in [1] came to 0.04 µg/mL (≈ 0.152 µM). For the same compound, the half-maximal effective concentration (EC50) in assay [3] was > 30 µM. Moreover, the values for the Efficacy in [2] and in [5] were 38% and 92%, respectively.

For `CN/C(=N\C#N)NCCC[C@@H]1C[C@@H]1c1cccc(Cl)c1`, in assay [1], the MIC was found to be 0.032 µg/mL (≈ 0.11 µM). Further, in [2], the Efficacy turned out to be 57%.

As for `CN(C)/C(=N\C#N)N(C)CCCCCc1cccc(Cl)c1`, in [1], the MIC turned out to be 0.026 µg/mL (≈ 0.0847 µM). In addition, the Efficacy in assay [2] is 71%.

For the compound `CN/C(=N\C#N)NCCCCCc1cccc(C)c1`, the MIC in [1] amounted to 0.032 µg/mL (≈ 0.124 µM). In addition, in [2], the Efficacy amounted to 57%.

Regarding `CCn1cc(C(=O)O)c(=O)c2cc(F)c(N3CCNCC3)cc21` [NORFLOXACIN], the Efficacy is recorded as 0% in assay [6] and 100% in [7]. Also, the MIC in [8] worked out at 0.056 µg/mL (≈ 0.175 µM); in assay [9] it was 0.014 µg/mL (≈ 0.0438 µM).

Turning to `CN/C(=N\C#N)NCCCCCc1cccc(C#N)c1`, the MIC in assay [1] amounted to 0.032 µg/mL (≈ 0.119 µM). In addition, the Efficacy in assay [2] was 57%.

With `C#Cc1cccc(CCCCCN/C(=N/C#N)NC)c1`, the MIC in assay [1] stood at 0.04 µg/mL (≈ 0.149 µM). Further, the Efficacy in [2] worked out at 57%.

In the case of `CN(C)/C(=N\C#N)N(C)Cc1ccc(-c2cccc(Cl)c2)cc1`, the MIC in [1] was 0.014 µg/mL (≈ 0.0428 µM). This compound also registered an EC50 in assay [3] of 4 µM. Besides, the Efficacy in assay [2] is 100%.

As for `CN(C)/C(=N\C#N)N(C)CCCC#Cc1cccc(S(F)(F)(F)(F)F)c1`, the MIC in [1] was found to be 0.014 µg/mL (≈ 0.0355 µM). Besides, the 50% effective concentration (EC50) in assay [3] was determined as 6.8 µM. Besides, in [2], the Efficacy is 100%.

Regarding `CN/C(=N\C#N)NCCCCCc1cccc(NS(C)(=O)=O)c1`, the MIC in [1] came to 0.04 µg/mL (≈ 0.119 µM). Moreover, in assay [2], the Efficacy stood at 38%.

In the case of `CN/C(=N\C#N)NCCCCc1cccc(Cl)c1`, the MIC in assay [1] turned out to be 0.04 µg/mL (≈ 0.151 µM). Moreover, in assay [2], the Efficacy came out at 38%.

`CN/C(=N/C#N)NCc1ccc(-c2cccc(Cl)c2)cc1`: the MIC in assay [1] was 0.014 µg/mL (≈ 0.0469 µM). Besides, the Efficacy in assay [2] was 100%.

In the case of `COCCCCCc1cccc(Cl)c1`, the MIC in assay [1] came to 0.056 µg/mL (≈ 0.263 µM). Besides, the Efficacy in assay [2] is 0%.

Turning to `CN/C(=N\C#N)NCc1ccccc1-c1cccc(Cl)c1`, in assay [1], the MIC was 0.04 µg/mL (≈ 0.134 µM). The Efficacy in assay [2] was 38%.

Take `CN/C(=N\C#N)NCCCC#Cc1cccc(S(F)(F)(F)(F)F)c1`: in assay [1], the MIC came out at 0.02 µg/mL (≈ 0.0546 µM). Besides, the Efficacy in assay [2] stood at 100%.

The values are drawn from ChEMBL document CHEMBL5523687, “Pentafluorosulfanyl-substituted biaryl derivatives as MATE-type transporter inhibitors targeting drug-resistant bacteria” (Bioorg Med Chem, 2024).
